This experiment concerns the target human MDM2 protein (amino acids 2-188) (Homo sapiens (Human), UniProt Q00987). Description: TR-FRET assay, p53-MDM2 Assay 2 (modified). The class given is binding. As to conditions: TR-FRET; 0.1 nM MDM2, 0.1 nM Europium labeled streptavidin, Tecan genios Pro reader; read-out: IC50 p53-MDM2 Assay 2. The method in brief: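 Biotinylated human MDM2 (aa 2–188, 1.25 nM) was preincubated 15 min at room temperature with 0.625 nM Eu-streptavidin, then 10 nM Cy5-p53 peptide (aa 18–26) added for 15 min. TR-FRET ratio 665/620 nm (excitation 340 nm) was read; IC50 came from curve fitting.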
(Time-resolved FRET reads energy transfer from a long-lived donor to a nearby acceptor.)

human MDM2 protein (amino acids 2-188), sequence (Q00987 2-188): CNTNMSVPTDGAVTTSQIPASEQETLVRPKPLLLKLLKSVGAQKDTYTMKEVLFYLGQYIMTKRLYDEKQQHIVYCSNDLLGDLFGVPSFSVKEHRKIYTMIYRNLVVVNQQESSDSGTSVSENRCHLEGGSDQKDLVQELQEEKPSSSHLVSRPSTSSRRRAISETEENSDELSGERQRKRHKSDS

In the case of `COc1nc(N(C)C)ncc1-c1cc2c(n1C(C)C)C(c1ccc(C#N)cc1)N(c1cc(C)nn1C)C2=O` (stereo not drawn) [Example 180, 4-[2-(2-Dimethylamino-4-methoxy-pyrimidin-5-yl)-5-(2,5-dimethyl-2H-pyrazol-3-yl)-1-isopropyl-4-oxo-1,4,5,6-tetrahydro-pyrrolo[3,4-b]pyrrol-6-yl]-benzonitrile], the IC50 is 0.647 nM.
For the compound `COc1ncc(-c2c(C#N)c3c(n2C(C)C)C(c2ccc(Cl)cc2)N(c2cc(Cl)c(=O)n(C)c2)C3=O)c(OC)n1` (stereo not drawn) [Example 120, 5-(5-Chloro-1-methyl-6-oxo-1,6-dihydro-pyridin-3-yl)-6-(4-chloro-phenyl)-2-(2,4-dimethoxy-pyrimidin-5-yl)-1-isopropyl-4-oxo-1,4,5,6-tetrahydro-pyrrolo[3,4-b]pyrrole-3-carbonitrile], the IC50 is 0.167 nM.
With `COc1nc(N(C)C)ncc1-c1cc2c(n1C(C)C)[C@H](c1ccc(C#N)cc1)N(c1cc(Cl)c(=O)n(C)c1)C2=O` [Example 232, (S)-4-(5-(5-Chloro-1-methyl-6-oxo-1,6-dihydropyridin-3-yl)-2-(2-(dimethylamino)-4-methoxypyrimidin-5-yl)-1-isopropyl-4-oxo-1,4,5,6-tetrahydropyrrolo[3,4-b]pyrrol-6-yl)benzonitrile] the figure was 0.069 nM.
For `COc1ncc(-c2cc3c(n2C(C)C)C(c2ccc(Cl)cc2)N(c2ccc(F)c(Cl)c2)C3=O)c(OC)n1` (stereo not drawn) [Example 54, 5-(3-Chloro-4-fluoro-phenyl)-6-(4-chloro-phenyl)-2-(2,4-dimethoxy-pyrimidin-5-yl)-1-isopropyl-5,6-dihydro-1H-pyrrolo[3,4-b]pyrrol-4-one], the IC50 was 0.267 nM.
As for `COc1ccc(C#N)cc1-c1cc2c(n1C(C)C)C(c1ccc(Cl)cc1)N([C@H]1CC[C@H](O)CC1)C2=O` (stereo partly drawn) [Example 67, 3-[6-(4-Chloro-phenyl)-5-(trans-4-hydroxy-cyclohexyl)-1-isopropyl-4-oxo-1,4,5,6-tetrahydro-pyrrolo[3,4-b]pyrrol-2-yl]-4-methoxy-benzonitrile], the IC50 was 2.49 nM.
For `COc1nc(N(C)C)ncc1-c1cc2c(n1C(C)C)C(c1ccc(Cl)cc1)N([C@H]1CC[C@H](OC)CC1)C2=O` (stereo partly drawn) [Example 142, 6-(4-Chloro-phenyl)-2-(2-dimethylamino-4-methoxy-pyrimidin-5-yl)-1-isopropyl-5-(trans-4-methoxy-cyclohexyl)-5,6-dihydro-1H-pyrrolo[3,4-b]pyrrol-4-one], the IC50 came out at 0.74 nM.
Turning to `COc1ccccc1-c1cc2c(n1C(C)C)C(c1ccc(Cl)cc1)N(c1cc(Cl)ccc1C#N)C2=O` (stereo not drawn) [Example 96, 4-Chloro-2-[6-(4-chloro-phenyl)-1-isopropyl-2-(2-methoxy-phenyl)-4-oxo-4,6-dihydro-1H-pyrrolo[3,4-b]pyrrol-5-yl]-benzonitrile], the IC50 stood at 1.95 nM.
In the case of `COc1ccc(CC(=O)N(C)C)cc1-c1cc2c(n1C(C)C)C(c1ccc(Cl)cc1)N(c1cc(Cl)ccc1C)C2=O` (stereo not drawn) [Example 82, 2-{3-[5-(5-Chloro-2-methyl-phenyl)-6-(4-chloro-phenyl)-1-isopropyl-4-oxo-1,4,5,6-tetrahydro-pyrrolo[3,4-b]pyrrol-2-yl]-4-methoxy-phenyl}-N,N-dimethyl-acetamide], the IC50 turned out to be 0.152 nM.
As for `CNc1ncc(-c2cc3c(n2C(C)C)C(c2ccc(Cl)cc2)N(c2cc(Cl)c[nH]c2=O)C3=O)c(OC)n1` (stereo not drawn) [Example 124, 5-(5-Chloro-2-oxo-1,2-dihydro-pyridin-3-yl)-6-(4-chloro-phenyl)-1-isopropyl-2-(4-methoxy-2-methylamino-pyrimidin-5-yl)-5,6-dihydro-1H-pyrrolo[3,4-b]pyrrol-4-one], the figure is 0.185 nM.
`COc1nc(N(C)C)ncc1-c1cc2c(n1C(C)C)[C@@H](c1ccc(C#N)cc1)N(C1CCOCC1)C2=O` [Example 191, 4-[(R)-2-(2-Dimethylamino-4-methoxy-pyrimidin-5-yl)-1-isopropyl-4-oxo-5-(tetrahydro-pyran-4-yl)-1,4,5,6-tetrahydro-pyrrolo[3,4-b]pyrrol-6-yl]-benzonitrile]: the IC50 came to 280 nM.
In the case of `COc1ncc(-c2cc3c(n2C(C)C)C(c2ccc(C#N)cc2)N(c2c[nH]c(=O)c(Cl)c2)C3=O)c(OC)n1` (stereo not drawn) [Example 135, 4-[5-(5-Chloro-6-oxo-1,6-dihydro-pyridin-3-yl)-2-(2,4-dimethoxy-pyrimidin-5-yl)-1-isopropyl-4-oxo-1,4,5,6-tetrahydro-pyrrolo[3,4-b]pyrrol-6-yl]-benzonitrile], the IC50 came out at 0.427 nM.
In the case of `COc1ncc(-c2cc3c(n2C(C)C)C(c2ccc(Cl)cn2)N(c2cc(Cl)cn(C)c2=O)C3=O)c(OC)n1` (stereo not drawn) [Example 213, 5-(5-Chloro-1-methyl-2-oxo-1,2-dihydro-pyridin-3-yl)-6-(5-chloro-pyridin-2-yl)-2-(2,4-dimethoxy-pyrimidin-5-yl)-1-isopropyl-5,6-dihydro-1H-pyrrolo[3,4-b]pyrrol-4-one], the IC50 worked out at 14.2 nM.
`CCn1c(-c2cnc(OC)nc2OC)cc2c1C(c1ccc(Cl)cc1)N(c1cc(Cl)ccc1C)C2=O` (stereo not drawn) [Example 45, 5-(5-Chloro-2-methyl-phenyl)-6-(4-chloro-phenyl)-2-(2,4-dimethoxy-pyrimidin-5-yl)-1-ethyl-5,6-dihydro-1H-pyrrolo[3,4-b]pyrrol-4-one]: the IC50 amounted to 87.6 nM.
Regarding `COc1nc(N(C)C)ncc1-c1cc2c(n1C(C)C)C(c1ccc(Cl)cc1)N(c1cn(C)nc1C)C2=O` (stereo not drawn) [Example 182, 6-(4-Chloro-phenyl)-2-(2-dimethylamino-4-methoxy-pyrimidin-5-yl)-5-(1,3-dimethyl-1H-pyrazol-4-yl)-1-isopropyl-5,6-dihydro-1H-pyrrolo[3,4-b]pyrrol-4-one], the IC50 is 0.659 nM.
With `CCOC(=O)c1c2c(n(C(C)C)c1-c1cnc(OC)nc1OC)C(c1ccc(Cl)cc1)N(c1cc(Cl)c(=O)n(C)c1)C2=O` (stereo not drawn) [Example 220, 5-(5-Chloro-1-methyl-6-oxo-1,6-dihydro-pyridin-3-yl)-6-(4-chloro-phenyl)-2-(2,4-dimethoxy-pyrimidin-5-yl)-1-isopropyl-4-oxo-1,4,5,6-tetrahydro-pyrrolo[3,4-b]pyrrole-3-carboxylic acid ethyl ester] the figure was 0.134 nM; with `COc1nc(N)ncc1-c1cc2c(n1C(C)C)C(c1ccc(C#N)cc1)N(c1cc(Cl)c[nH]c1=O)C2=O` (stereo not drawn) [Example 125, 4-[2-(2-Amino-4-methoxy-pyrimidin-5-yl)-5-(5-chloro-2-oxo-1,2-dihydro-pyridin-3-yl)-1-isopropyl-4-oxo-1,4,5,6-tetrahydro-pyrrolo[3,4-b]pyrrol-6-yl]-benzonitrile], 3.22 nM; with `COc1nc(N(C)C)ncc1-c1cc2c(n1C(C)C)[C@@H](c1ccc(C#N)cc1)N(c1cc(Cl)c[nH]c1=O)C2=O` [Example 168, 4-[(R)-5-(5-Chloro-2-oxo-1,2-dihydro-pyridin-3-yl)-2-(2-dimethylamino-4-methoxy-pyrimidin-5-yl)-1-isopropyl-4-oxo-1,4,5,6-tetrahydro-pyrrolo[3,4-b]pyrrol-6-yl]-benzonitrile], 107 nM.
Consider `COc1ccc(C(=O)N(C)C)cc1-c1cc2c(n1C(C)C)[C@@H](c1ccc(Cl)cc1)N(c1cc(Cl)ccc1C)C2=O` [Example 21, 3-[(R)-5-(5-Chloro-2-methyl-phenyl)-6-(4-chloro-phenyl)-1-isopropyl-4-oxo-1,4,5,6-tetrahydro-pyrrolo[3,4-b]pyrrol-2-yl]-4-methoxy-N,N-dimethyl-benzamide], for which the half-maximal inhibitory concentration (IC50) is 621 nM.
With `COc1ccncc1-c1cc2c(n1C(C)C)C(c1ccc(Cl)cc1)N(c1cc(Cl)ccc1C)C2=O` (stereo not drawn) [Example 13, 5-(5-Chloro-2-methyl-phenyl)-6-(4-chloro-phenyl)-1-isopropyl-2-(4-methoxy-pyridin-3-yl)-5,6-dihydro-1H-pyrrolo[3,4-b]pyrrol-4-one], the IC50 was 0.176 nM.
`COc1ccc(C(=O)N2CCOCC2)cc1-c1cc2c(n1C(C)C)C(c1ccc(Cl)cc1)N(c1cc(Cl)ccc1C)C2=O` (stereo not drawn) [Example 28, 5-(5-Chloro-2-methyl-phenyl)-6-(4-chloro-phenyl)-1-isopropyl-2-[2-methoxy-5-(morpholine-4-carbonyl)-phenyl]-5,6-dihydro-1H-pyrrolo[3,4-b]pyrrol-4-one]: the IC50 was 0.106 nM.
Consider `COc1nc(N)ncc1-c1cc2c(n1C(C)C)C(c1ccc(C#N)cc1)N(c1cc(Cl)cn(C)c1=O)C2=O` (stereo not drawn) [Example 129, 4-[2-(2-Amino-4-methoxy-pyrimidin-5-yl)-5-(5-chloro-1-methyl-2-oxo-1,2-dihydro-pyridin-3-yl)-1-isopropyl-4-oxo-1,4,5,6-tetrahydro-pyrrolo[3,4-b]pyrrol-6-yl]-benzonitrile], for which the IC50 came out at 5.66 nM.
As for `COc1ncc(-c2cc3c(n2C(C)C)C(c2ccc(Cl)cc2)N(c2cc(Cl)ccc2C)C3=O)c(OC)n1` (stereo not drawn) [Example 14, 5-(5-Chloro-2-methyl-phenyl)-6-(4-chloro-phenyl)-2-(2,4-dimethoxy-pyrimidin-5-yl)-1-isopropyl-5,6-dihydro-1H-pyrrolo[3,4-b]pyrrol-4-one], the figure is 0.068 nM; as for `COc1nc(N(C)C)ncc1-c1cc2c(n1C(C)C)[C@@H](c1ccc(Cl)cc1)N(c1c[nH]c(=O)c(Cl)c1)C2=O` [Example 189, (R)-5-(5-Chloro-6-oxo-1,6-dihydro-pyridin-3-yl)-6-(4-chloro-phenyl)-2-(2-dimethylamino-4-methoxy-pyrimidin-5-yl)-1-isopropyl-5,6-dihydro-1H-pyrrolo[3,4-b]pyrrol-4-one], 10.6 nM.
With `COc1ncc(-c2cc3c(n2C(C)C)[C@H](c2ccc(Cl)cc2C)N(c2cc(Cl)c(=O)n(C)c2)C3=O)c(OC)n1` [Example 160, (S)-5-(5-Chloro-1-methyl-6-oxo-1,6-dihydro-pyridin-3-yl)-6-(4-chloro-2-methyl-phenyl)-2-(2,4-dimethoxy-pyrimidin-5-yl)-1-isopropyl-5,6-dihydro-1H-pyrrolo[3,4-b]pyrrol-4-one], the IC50 worked out at 0.144 nM.

For orientation: IC50 means the point on the concentration scale where inhibition reaches its midpoint.

The values are drawn from patent US9365576B2, “Pyrrolopyrrolidinone compounds” (Novartis AG, priority 2012, dated 2016).
